Measured values taken from patent US20260076935A1, “PREVENTION AND TREATMENT OF CONDITIONS USING ETHYL PYRUVATE” (The Trustees of Columbia University in the City of New York, priority 2023, published 2026).

Assays:
[1] = system: early-onset Lmx1b developmental glaucoma model; test: Intraocular pressure (IOP) in mice with early-onset Lmx1b developmental glaucoma model; format: in vivo
Text: Ethyl pyruvate's ability to treat or prevent IOP elevation ocular developmental abnormalities was surprising at least because such effects have not been observed with sodium pyruvate treatments.

[2] = system: early onset Lmx1b developmental glaucoma model; test: Ocular developmental abnormalities (iridocorneal adhesions, anterior chamber depth) in Lmx1b glaucoma mice; format: in vivo
Text: As shown in FIGS. 4-6, in addition to preventing or treating high IOP, treatment of mice harboring an early onset Lmx1b developmental glaucoma model with ethyl pyruvate, alone or in combination with a metabolite boosting agent, unexpectedly rescued ocular developmental abnormalities. […] Ethyl pyruvate's ability to treat or prevent IOP elevation ocular developmental abnormalities was surprising at least because such effects have not been observed with sodium pyruvate treatments.

[3] = multiple mammalian species, including humans, mice, rats, and horses; cited from earlier work
[4] = Long-term dosing of mice, adverse effects; format: in vivo; conditions: mice dosed for at least up to nine months
Procedure: Ethyl pyruvate was sourced from Sigma-Aldrich. […] See, e.g., Clinical Trial Identifier NCT00107666 (human cardiac trial, dosing ethyl pyruvate at 7.5 g (90 mg/kg) intravenously, every six hours for two days); Xiujing Sun et al., Ethyl Pyruvate Supplemented in Drinking Water Ameliorates Experimental Nonalcoholic Steatohepatitis, 137 Biomedical Pharmacotherapy 111392 (2021); Leilei Mao et al., Ethyl Pyruvate Improves White Matter Remodeling in Rats After Traumatic Brain Injury, 27 CNS Neuroscience & Therapeutics 113 (2021); C. C. Jacobs et al, Ethyl Pyruvate Diminishes the Inflammatory Response to Lipopolysaccharide Infusion in Horses, 45 Equine Veterinary J. 333 (2013). […] Furthermore, ethyl pyruvate is an FDA-approved food additive and flavoring agent.

[5] = system: early onset Lmx1b developmental glaucoma model; test: Glaucomatous optic nerve damage (neurodegeneration) in Lmx1b glaucoma mice; format: in vivo; conditions: FIG. 8
[6] = system: age-onset mouse glaucoma models; test: IOP in age-onset mouse glaucoma models; format: in vivo
Procedure: In some embodiments, one or more of these factors may lead to glaucoma. In some embodiments, the mouse model is a Lmx1b mouse model. This is unexpected at least because sodium pyruvate had no effect on IOP in age-onset mouse glaucoma models, or in the early-onset Lmx1b developmental glaucoma model. For example, treatment of Lmx1b mice with about 500 mg/kg/day of sodium pyruvate had no effect on IOP at 2, 3, and 4-months post-treatment. This is also unexpected at least because calcium pyruvate had no effect on IOP in humans in prior clinical studies.

[7] = prior clinical studies; cited from earlier work
[8] = about 500 mg/kg/day, 2, 3, and 4-months post-treatment, Lmx1b mice

## CCOC(=O)C(C)=O [ethyl pyruvate]
[1]; ethyl pyruvate 500 mg/kg/day, out to two months of age, FIG. 1
  IOP: lessening of IOP
[1]; ethyl pyruvate 2000 mg/kg/day, FIG. 2
  IOP: lessening of IOP
[2]; FIGS. 5-6
  anterior chamber deepening: significant effect in preventing or reducing anterior chamber deepening
[2]; ethyl pyruvate 2000 mg/kg/day, FIG. 4
  incidence and severity of iridocorneal adhesions: less incidence and severity
[3]
  safety and tolerability: safe and well-tolerated
[4]
  adverse effects: without adverse effects
[5]; ethyl pyruvate 2000 mg/kg/day, mice aged to six months
  glaucomatous optic nerve damage (neurodegeneration): lessening of glaucomatous optic nerve damage

## NC(=O)c1cccnc1 [nicotinamide]
[5]; nicotinamide 550 mg/kg/day
  glaucomatous optic nerve damage: protective from glaucomatous optic nerve damage

## CC(=O)C(=O)[O-].[Na+] [sodium pyruvate]
[1]; [8]
  IOP: no effect
[1]; sodium pyruvate 500 mg/kg/day, after two months, FIG. 7
  IOP elevation: no effect
[1]; sodium pyruvate 500 mg/kg/day, at three and four months
  IOP compared to untreated: no changes were observed
[2]; [8]
  severity of anterior eye developmental abnormalities: no effect
[2]; sodium pyruvate 500 mg/kg/day
  severity of anterior eye developmental abnormalities: no change
[6]
  IOP: no effect

## calcium pyruvate
[7]
  IOP in humans: no effect
